Experimental data: patent publication US7807702B2 (Eli Lilly and Company, priority 2005, dated 2010)
pKi: −log10 of the molar value.

Target: T1, cloned human glucagon receptor (Homo sapiens, UniProt P47871)
T1 construct: The hGlucR cDNA is subcloned into the expression plasmid phD; expressed in transfected cells; host or cells: 293 HEK cells, hygromycin-selected; crude plasma membranes
Assay: Glucagon Receptor (hGlucR) Binding Assay
Description: Crude plasma membranes are prepared using cells from suspension culture. […] The second supernate is combined with the first supernate.
The specific activity is 2200 Ci/mmol.

T1 sequence (P47871 26-477): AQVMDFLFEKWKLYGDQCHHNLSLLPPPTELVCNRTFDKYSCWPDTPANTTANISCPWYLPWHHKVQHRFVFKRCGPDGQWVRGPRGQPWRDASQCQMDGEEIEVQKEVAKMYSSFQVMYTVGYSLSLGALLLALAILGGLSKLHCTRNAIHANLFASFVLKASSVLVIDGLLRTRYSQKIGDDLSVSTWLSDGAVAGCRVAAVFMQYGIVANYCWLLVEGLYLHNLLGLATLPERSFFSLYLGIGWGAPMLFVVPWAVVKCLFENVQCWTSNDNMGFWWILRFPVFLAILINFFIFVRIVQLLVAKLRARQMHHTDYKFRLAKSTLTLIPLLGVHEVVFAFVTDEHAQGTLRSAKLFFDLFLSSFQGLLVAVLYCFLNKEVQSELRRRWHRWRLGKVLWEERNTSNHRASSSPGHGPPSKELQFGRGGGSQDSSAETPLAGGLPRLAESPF

pKi: 7.44
Compound: CCCC(Sc1cc(C)c(-c2ccc(C(F)(F)F)cc2)c(C)c1)c1ccc(C(=O)NCc2nnn[nH]2)s1 (stereo not shown)
